For orientation: pKB means −log10 of the KB, conventionally taken in molar units. The low end stands for a high KB, the high end for a low KB.

Non-standard residues stand in square brackets, D forms with d. Residues, ends and D or L forms follow the SMILES beside them. *: point of attachment. Trp(1-Me) = Cn1cc(C[C@H](N)C(=O)O)c2ccccc21; Phe(4-Cl) = N[C@@H](Cc1ccc(Cl)cc1)C(=O)O; αMeW = C[C@](N)(Cc1c[nH]c2ccccc12)C(=O)O; 2Nal = N[C@@H](Cc1ccc2ccccc2c1)C(=O)O; Fmoc = O=C(OCC1c2ccccc2-c2ccccc21)*; Adoc = O=C(OC12CC3CC(CC(C3)C1)C2)*; Boc = CC(C)(C)OC(=O)*

Assay [1] concerns the target T1, gastrin receptor (Mus musculus, UniProt P56481).
T1 construct: assayed for gastrin activity using the mouse stomach assay; from tissue; host or cells: isolated mouse stomach
T1 sequence (P56481 1-453): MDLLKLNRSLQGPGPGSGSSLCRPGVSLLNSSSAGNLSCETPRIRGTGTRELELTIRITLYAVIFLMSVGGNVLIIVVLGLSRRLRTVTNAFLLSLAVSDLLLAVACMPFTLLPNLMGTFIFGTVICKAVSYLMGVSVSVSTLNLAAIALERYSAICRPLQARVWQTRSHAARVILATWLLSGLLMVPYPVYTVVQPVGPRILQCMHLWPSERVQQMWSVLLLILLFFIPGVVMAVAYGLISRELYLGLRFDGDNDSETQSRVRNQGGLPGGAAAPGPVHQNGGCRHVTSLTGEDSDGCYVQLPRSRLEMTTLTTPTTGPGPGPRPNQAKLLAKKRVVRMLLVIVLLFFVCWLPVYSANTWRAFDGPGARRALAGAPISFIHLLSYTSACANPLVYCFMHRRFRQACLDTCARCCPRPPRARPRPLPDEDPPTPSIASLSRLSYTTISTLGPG
Put plainly: mouse stomach assay for gastrin activity (isolated stomach, acid secretion). Type of assay: cell-based. The settings on record: for Acid seretion at 10^-5 M test compound, relative to pentagastrin (%): mouse stomach, NS = not significant. Here is the method: The compounds were assayed for gastrin activity using the mouse stomach assay as described by Black, J. W. and Shankley, N. P., Br. J. Pharmacol., 86, 571-579, (1985), and also in the guinea-pig fundus assay, as follows: […]

In assay [2] the target is T2, cholecystokinin receptors (Cavia porcellus, UniProt Q63931).
T2 construct: Isolated, strip preparations were prepared from gall-bladders removed from male Dunkin-Hartley guinea-pigs; from tissue; host or cells: guinea-pig gall-bladder strips
T2 sequence (Q63931 1-430): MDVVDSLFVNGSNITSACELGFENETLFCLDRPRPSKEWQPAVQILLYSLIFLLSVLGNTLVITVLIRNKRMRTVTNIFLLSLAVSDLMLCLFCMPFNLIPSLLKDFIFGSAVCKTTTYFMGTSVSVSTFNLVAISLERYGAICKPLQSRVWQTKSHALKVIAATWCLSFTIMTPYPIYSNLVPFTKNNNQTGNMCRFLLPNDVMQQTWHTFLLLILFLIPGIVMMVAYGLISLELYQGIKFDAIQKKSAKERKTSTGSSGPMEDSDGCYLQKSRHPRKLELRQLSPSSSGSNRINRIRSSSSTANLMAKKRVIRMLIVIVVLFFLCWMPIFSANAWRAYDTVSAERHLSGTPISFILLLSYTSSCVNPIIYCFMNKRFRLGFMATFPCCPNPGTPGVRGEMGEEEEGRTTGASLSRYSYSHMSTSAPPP
The assay is described as follows: CCK-antagonist activity in isolated guinea-pig gall-bladder strip preparations. Type of assay: cell-based. Conditions: guinea-pig gall-bladder strips; CCK-8 as agonist; test compound incubated for 60 minutes; standard errors less than 5%. As for the experimental part:
The compounds of the invention were also assayed for CCK-antagonist activity as follows:
Isolated, strip preparations were prepared from gall-bladders removed from male Dunkin-Hartley guinea-pigs (250-500 g body weight) according to the method of La Morte, W. W., et al., J.P.E.T., 217, (3), 638-644 (1981).
The complete gall-bladder is removed and opened along the longitudinal axis. Strips measuring 3 mm in the longitudinal axis and 1 mm in the transverse axis are cut and then tied with cotton to stainless steel wires. The preparation is connected to a GRASS FTO3 isometric transducer under an initial loading tension of 1 g and is immersed in 20 mls of Krebs solution maintained at 37° C. and gassed with 95% O2 /5% CO2. The Krebs solution is as detailed above in connection with the fundus assay, except that the Ca^2+ concentration is decreased to 0.5 mM. After 30 mins the preparation is washed. Drug addition begins after an initial 90 min stabilisation period. Responses are measured as changes in tension from that immediately prior to any drug addition. Single cumulative agonist concentration-effect curves, using CCK-8 as agonist, are obtained on each preparation in the absence and presence of test compound which has been incubated for 60 minutes. The antagonist activity of the test compound is estimated and expressed as the negative logarithm (base 10) of the equilibrium dissociation constants (pK8) using the modifications of standard competitive analysis described by Black et al., Br. J. Pharmacol.,86,571-579, (1985) and Shankley et al., Br. J. Pharmacol.,94,264-274 (1988).

The mark [3] stands for this setting: isolated mouse stomach assay, gastrin antagonism, standard errors less than 5%.

In the case of `CNC(=O)[C@H](Cc1ccccc1)NC(=O)[C@H](CC(=O)O)NC(=O)[C@H](Cc1ccc2ccccc2c1)NC(=O)[C@H](Cc1c[nH]c2ccccc12)NC(=O)OC(C)(C)C` [Example 5, N-t-Butyloxycarbonyl-L-tryptophyl-L-3-(2-naphthyl)alanyl-L-aspartyl-L-phenylalanyl-(N-methyl)amide] (Boc-W[2Nal]DF-NHMe), in assay [1] (setting [3]), the pKB mouse stomach is listed as 5.6. The “Acid seretion at 10^-5 M test compound, relative to pentagastrin (%)” value (from here on “Acid seretion … relative to pentagastrin (%)”) in assay [1] came to 23%. In assay [2], the pKB stood at 5.4. For `CC(C)(C)OC(=O)N[C@@H](Cc1c[nH]c2ccccc12)C(=O)N[C@@H](Cc1ccc2ccccc2c1)C(=O)N[C@@H](CC(=O)O)C(=O)N[C@@H](Cc1ccc(Cl)cc1)C(N)=O` [Example 11, N-t-Butyloxycarbonyl-L-tryptophyl-L-3-(2-naphthyl)alanyl-L-aspartyl-L-(4-chlorophenylalanin)amide] (Boc-W[2Nal]D[Phe(4-Cl)]-NH2), in that order: 6.6, 60% and 5.9.

Turning to `NC(=O)[C@H](Cc1ccccc1)NC(=O)[C@H](CC(=O)O)NC(=O)[C@H](Cc1ccc2ccccc2c1)NC(=O)[C@H](Cc1c[nH]c2ccccc12)NC(=O)OC12CC3CC(CC(C3)C1)C2` [Example 13, N-1-Adamantyloxycarbonyl-L-tryptophyl-L-3-(2-naphthyl)alanyl-L-aspartyl-L-phenylalaninamide] (Adoc-W[2Nal]DF-NH2), the Kb in assay [2] is 1.26 µM. `COc1ccc(CCNC(=O)[C@H](CC(=O)O)NC(=O)[C@H](Cc2ccc3ccccc3c2)NC(=O)[C@H](Cc2c[nH]c3ccccc23)NC(=O)OC23CC4CC(CC(C4)C2)C3)cc1` [Example 14, N-1-Adamantyloxycarbonyl-L-tryptophyl-L-3-(2-naphthyl)alanyl-L-aspartyl-4-methoxyphenethylamide] had a pKB in assay [2] of 6.0.

Consider `NC(=O)[C@H](Cc1ccccc1)NC(=O)[C@H](CC(=O)O)NC(=O)[C@H](Cc1ccc2ccccc2c1)NC(=O)[C@H](Cc1c[nH]c2ccccc12)NC(=O)OCC1c2ccccc2-c2ccccc21` [Example 16, N-9-Fluorenylmethoxycarbonyl-L-tryptophyl-L-3-(2-naphthyl)alanyl-L-aspartyl-L-phenylalaninamide] (Fmoc-W[2Nal]DF-NH2), for which the Kb in assay [1] (isolated mouse stomach assay, gastrin antagonism, standard errors less than 5%, read-out: pKB mouse stomach (converted)) was 2 µM; in assay [2], 2.51 µM. Moreover, the “Acid seretion … relative to pentagastrin (%)” value in assay [1] was determined as 67%. In assay [1] (setting [3]), `CC(C)(C)OC(=O)N[C@@](C)(Cc1c[nH]c2ccccc12)C(=O)N[C@@H](Cc1ccc2ccccc2c1)C(=O)N[C@@H](CC(=O)O)C(=O)N[C@@H](Cc1ccccc1)C(N)=O` [Example 17, N-t-Butyloxycarbonyl-a-methyl-tryptophyl-L-3-(2-naphthyl)alanyl-L-aspartyl-L-phenylalaninamide] (Boc-[αMeW][2Nal]DF-NH2) gave a pKB mouse stomach of 5.9. In addition, in assay [1], the “Acid seretion … relative to pentagastrin (%)” value came out at 44%. In assay [2], this compound returned a negative logarithm of the KB (pKB) of 5.5. The compound `NC(=O)[C@H](Cc1ccccc1)NC(=O)[C@H](CC(=O)O)NC(=O)[C@H](Cc1ccc2ccccc2c1)NC(=O)Cc1c[nH]c2ccccc12` [Example 20, Indole-3-acetamido-L-3-(2-naphthyl)alanyl-L-aspartyl-L-phenylalaninamide] gave a pKB mouse stomach in assay [1] (setting [3]) of 6.2. Besides, the “Acid seretion … relative to pentagastrin (%)” value in assay [1] is 33%. In addition, the negative-log KB (pKB) in assay [2] amounted to 6.7. On to `NC(=O)[C@H](Cc1ccccc1)NC(=O)[C@H](CC(=O)O)NC(=O)[C@H](Cc1ccc2ccccc2c1)NC(=O)CCc1c[nH]c2ccccc12` [Example 21, Indole-3-propionamido-L-3-(2-naphthyl)alanyl-L-aspartyl-L-phenylalaninamide], for which the pKB in assay [2] turned out to be 6.2. `CC(C)(C)OC(=O)N[C@H](Cc1c[nH]c2ccccc12)C(=O)N[C@@H](Cc1ccc2ccccc2c1)C(=O)N[C@@H](CC(=O)O)C(=O)N[C@@H](Cc1ccccc1)C(N)=O` [Example 22, N-t-Butyloxycarbonyl-D-tryptophyl-L-3-(2-naphthyl)alanyl-L-aspartyl-L-phenylalaninamide] (Boc-[dW][2Nal]DF-NH2) had a Kb in assay [2] of 0.631 µM.

With `CC(C)(C)OC(=O)N[C@@H](Cc1c[nH]c2ccccc12)C(=O)N[C@@H](Cc1ccc2ccccc2c1)C(=O)N[C@@H](CC(=O)O)C(=O)NCCc1ccc(C(F)(F)F)cc1` [Example 28, N-t-Butyloxycarbonyl-L-tryptophyl-L-3-(2-naphthyl)alanyl-L-aspartyl-4-trifluoromethylphenethylamide], the pKB in assay [2] is reported as 6.4.

On to `CC(C)(C)OC(=O)N[C@@H](Cc1c[nH]c2ccccc12)C(=O)N[C@@H](Cc1ccc2ccccc2c1)C(=O)N[C@@H](CC(=O)O)C(=O)NCC12CC3CC(CC(C3)C1)C2` [Example 35, N-t-Butyloxycarbonyl-L-tryptophyl-L-3-(2-naphthyl)alanyl-L-aspartyl-1-adamantylmethylamide], for which the pKB in assay [2] worked out at 5.8. The same measure, in the same setting: under `CC(C)(C)OC(=O)N[C@@H](Cc1c[nH]c2ccccc12)C(=O)N[C@@H](Cc1ccc2ccccc2c1)C(=O)N[C@@H](CC(=O)O)C(=O)NCCc1ccc2c(c1)CCCC2` [Example 43, N-t-Butyloxycarbonyl-L-tryptophyl-L-3-(2-naphthyl)alanyl-L-aspartyl-2-(5,6,7,8-tetrahydronaphthyl)ethylamide] stands 6.5; under `Cn1cc(C[C@H](NC(=O)OC(C)(C)C)C(=O)N[C@@H](Cc2ccc3ccccc3c2)C(=O)N[C@@H](CC(=O)O)C(=O)N[C@@H](Cc2ccccc2)C(N)=O)c2ccccc21` [Example 45, N-t-Butyloxycarbonyl-L-N^in-methyltryptophyl-L-3-(2-naphthyl)alanyl-L-aspartyl-L-phenylalaninamide] (Boc-[Trp(1-Me)][2Nal]DF-NH2), 6.1. In assay [2], `CC(C)(C)OC(=O)N[C@@H](Cc1c[nH]c2ccccc12)C(=O)N[C@@H](Cc1ccc2ccccc2c1)C(=O)N[C@@H](CC(=O)O)C(=O)NCCc1cccc(C(F)(F)F)c1` [Example 50, N-t-Butyloxycarbonyl-L-tryptophyl-L-3-(2-naphthyl)alanyl-L-aspartyl-3-trifluoromethylphenethylamide] gave a pKB of 6.1. Same read-out and setting: under `CC(C)(C)OC(=O)N[C@@H](Cc1c[nH]c2ccccc12)C(=O)N[C@@H](Cc1ccc2ccccc2c1)C(=O)N[C@@H](CC(=O)O)C(=O)NC1Cc2ccccc2C1` [Example 53, N-t-Butyloxycarbonyl-L-tryptophyl-L-3-(2-naphthyl)alanyl-L-aspartyl-2-indanylamide] stands 6.6. On the same count and under the same terms, under `COc1cc(OC)c(CCNC(=O)[C@H](CC(=O)O)NC(=O)[C@H](Cc2ccc3ccccc3c2)NC(=O)[C@H](Cc2c[nH]c3ccccc23)NC(=O)OC(C)(C)C)c(OC)c1` [Example 55, N-t-Butyloxycarbonyl-L-tryptophyl-L-3-(2-naphthyl)alanyl-L-aspartyl-2,4,6-trimethoxyphenethylamide] stands 6.4; under “N-t-Butyloxycarbonyl-L-tryptophyl-L-3-(2-naphthyl)alanyl-L-aspartyl-2,4-dichlorophenethylamide [Example 37]”, 6.4.

Source of the values: patent US5486597A, “Tetrapeptide derivatives and analogues” (James Black Foundation Limited, priority 1990, dated 1996).
